Experimental data reported in US20240174662A1, “SMALL MOLECULE INHIBITORS OF SALT INDUCIBLE KINASES” (Janssen Biotech, Inc., priority 2021, published 2024).

Target: SIK2 (Homo sapiens (Human), UniProt Q9H0K1)
Assay: SIK2 Enzymatic Assay Version 2 (High ATP)
Assay type: biochemical
Conditions: 3 mM ATP and 200 μM HDAC5tide final, ADP-Glo Max luminescence
Method: All steps were performed at room temperature. Compounds were pre-plated onto an assay plate using an Echo acoustic dispenser (Labcyte, […] or […]) at 80 nL per well. Enzyme prepared in assay buffer at 6 nM (2× final concentration) was added at 4 μL per well using the Multidrop Combi (Thermo Fisher-used for all additions in this assay) to the assay plate, spun for 1 min at 1000 rpm (Allegra 6KR Beckman Coulter centrifuge), and incubated with compound for 30 minutes. […] ADP-Glo Max Reagent (prepared and aliquoted as per manufacturer instructions) was then added at 8 μL per well, spun and incubated for 2 hours. ADP-Glo Max Detection (prepared and aliquoted as per manufacturer instructions) was added at 8 μL per well to the assay plate, which was spun and incubated for 1 hour. The plate was then read on the Pherastar (BMG Labtech) using a luminescence read. Gain was set between 2200-2500.

SIK2, sequence (Q9H0K1 whole entry, species assumed): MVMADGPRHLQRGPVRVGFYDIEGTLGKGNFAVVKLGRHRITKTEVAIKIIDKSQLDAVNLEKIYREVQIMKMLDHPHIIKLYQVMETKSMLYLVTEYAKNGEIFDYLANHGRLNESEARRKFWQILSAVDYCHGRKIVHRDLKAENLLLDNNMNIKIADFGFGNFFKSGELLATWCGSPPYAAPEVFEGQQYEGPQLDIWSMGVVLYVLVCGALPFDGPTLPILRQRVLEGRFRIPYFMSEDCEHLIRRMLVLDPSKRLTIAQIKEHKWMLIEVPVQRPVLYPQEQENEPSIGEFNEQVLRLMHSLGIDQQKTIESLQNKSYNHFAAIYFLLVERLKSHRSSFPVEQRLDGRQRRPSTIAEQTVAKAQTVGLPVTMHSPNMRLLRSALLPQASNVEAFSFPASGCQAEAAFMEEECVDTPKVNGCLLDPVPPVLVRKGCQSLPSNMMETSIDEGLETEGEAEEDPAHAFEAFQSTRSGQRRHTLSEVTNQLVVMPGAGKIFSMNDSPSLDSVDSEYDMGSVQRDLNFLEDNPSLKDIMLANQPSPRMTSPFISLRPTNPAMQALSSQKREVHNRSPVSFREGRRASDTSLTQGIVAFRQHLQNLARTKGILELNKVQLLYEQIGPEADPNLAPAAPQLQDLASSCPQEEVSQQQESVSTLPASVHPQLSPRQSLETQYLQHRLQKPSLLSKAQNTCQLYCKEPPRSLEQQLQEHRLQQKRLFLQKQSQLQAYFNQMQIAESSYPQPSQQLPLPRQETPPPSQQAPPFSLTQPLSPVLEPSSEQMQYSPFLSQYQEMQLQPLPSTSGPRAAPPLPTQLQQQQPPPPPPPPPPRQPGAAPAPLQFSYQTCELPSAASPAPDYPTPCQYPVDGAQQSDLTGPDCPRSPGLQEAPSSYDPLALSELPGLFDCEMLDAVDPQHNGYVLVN

First: CN1CC[C@@H]1COc1cnn(C)c1-c1ccn2nc(NC(=O)[C@@H]3C[C@@H]3c3ccccc3)cc2c1 (mixture of isomers) [Example 473, cis-N-[5-[2-methyl-4-[(1-methylazetidin-2-yl)methoxy]pyrazol-3-yl]pyrazolo[1,5-a]pyridin-2-yl]-2-phenyl-cyclopropanecarboxamide]
Second: CN1CC[C@@H]1COc1cnn(C)c1-c1ccn2nc(NC(=O)[C@H]3C[C@@H]3c3ccccc3)cc2c1 (racemic) [Example 71, trans-N-[5-[2-methyl-4-[((2R)-1-methylazetidin-2-yl)methoxy]pyrazol-3-yl]pyrazolo[1,5-a]pyridin-2-yl]-2-phenyl-cyclopropanecarboxamide]
The IC50 of the first is 5.1-fold higher: 113 nM for the first, 22.3 nM for the second.

Compared with `CN1CC2(CCOCC2)C1COc1cnn(C)c1-c1ccn2nc(NC(=O)C3CC3)cc2c1` (racemic) [Example 13, (rac)-N-[5-[2-methyl-4-[(2-methyl-7-oxa-2-azaspiro[3.5]nonan-3-yl)methoxy]pyrazol-3-yl]pyrazolo[1,5-a]pyridin-2-yl]cyclopropanecarboxamide], `CN1CC2(CC2)C1COc1cnn(C)c1-c1ccn2nc(NC(=O)C3CC3)cc2c1` (racemic) [Example 51, (rac)-N-[5-[2-methyl-4-[(5-methyl-5-azaspiro[2.3]hexan-6-yl)methoxy]pyrazol-3-yl]pyrazolo[1,5-a]pyridin-2-yl]cyclopropanecarboxamide] is 1.5-fold lower in IC50: 71.5 nM for the first, 47 nM for the second. The second is the more potent here.

`CN1CCC1(C)COc1cnn(C)c1-c1ccn2nc(NC(=O)C3CC3)cc2c1` (racemic) [Example 54, (rac)-N-[5-[4-[(1,2-dimethylazetidin-2-yl)methoxy]-2-methyl-pyrazol-3-yl]pyrazolo[1,5-a]pyridin-2-yl]cyclopropanecarboxamide] and `CN1CC(F)(F)C1COc1cnn(C)c1-c1ccn2nc(NC(=O)C3CC3)cc2c1` (racemic) [Example 60, rac-N-[5-[4-[(3,3-difluoro-1-methyl-azetidin-2-yl)methoxy]-2-methyl-pyrazol-3-yl]pyrazolo[1,5-a]pyridin-2-yl]cyclopropanecarboxamide] are within 1.5-fold of each other in IC50: 178 nM for the first, 230 nM for the second.

Going from `CN1CC[C@@H]1COc1cnn(C)c1-c1ccn2nc(NC(=O)[C@H]3C[C@@H]3C(F)(F)F)cc2c1` (racemic) [Example 70, trans-N-[5-[2-methyl-4-[((2R)-1-methylazetidin-2-yl)methoxy]pyrazol-3-yl]pyrazolo[1,5-a]pyridin-2-yl]-2-(trifluoromethyl)cyclopropanecarboxamide] to `Cn1ncc(OCC2NCC23CC3)c1-c1ccn2nc(NC(=O)C3CC3)cc2c1` (racemic) [Example 240, (RS)—N-[5-[4-(5-azaspiro[2.3]hexan-6-ylmethoxy)-2-methyl-pyrazol-3-yl]pyrazolo[1,5-a]pyridin-2-yl]cyclopropanecarboxamide], the IC50 falls from 219 nM to 28.7 nM (7.6-fold).

Compared with `COC1(COc2cnn(C(F)F)c2-c2ccn3nc(Nc4cc(C)nc(C)n4)cc3c2)CCNC1` (racemic) [Example 100, (RS)-5-[2-(difluoromethyl)-4-[(3-methoxypyrrolidin-3-yl)methoxy]pyrazol-3-yl]-N-(2,6-dimethylpyrimidin-4-yl)pyrazolo[1,5-a]pyridin-2-amine], `Cc1cc(Nc2cc3cc(-c4c(OCC5(F)CCNC5)cnn4C(F)F)ccn3n2)nc(C)n1` (racemic) [Example 101, (RS)-5-[2-(difluoromethyl)-4-[(3-fluoropyrrolidin-3-yl)methoxy]pyrazol-3-yl]-N-(2,6-dimethylpyrimidin-4-yl)pyrazolo[1,5-a]pyridin-2-amine] is 1.7-fold lower in IC50: 12.4 nM for the first, 7.2 nM for the second.

First: Cn1ncc(COC2CNCC2(F)F)c1-c1ccn2nc(NC(=O)C3CC3)cc2c1 (racemic) [Example 184, (RS)—N-[5-[4-[(4,4-difluoropyrrolidin-3-yl)oxymethyl]-2-methyl-pyrazol-3-yl]pyrazolo[1,5-a]pyridin-2-yl]cyclopropanecarboxamide]
Second: CO[C@H]1CNC[C@@H]1Oc1cnn(C)c1-c1ccn2nc(NC(=O)C3CC3)cc2c1 (racemic) [Example 421, (rac-trans)-N-[5-[4-(4-methoxypyrrolidin-3-yl)oxy-2-methyl-pyrazol-3-yl]pyrazolo[1,5-a]pyridin-2-yl]cyclopropanecarboxamide]
The IC50 of the first is 8-fold lower: 14.5 nM for the first, 116 nM for the second.

Going from `COC1CNC[C@@H]1Oc1noc(C)c1-c1ccn2nc(NC(=O)C3CC3)cc2c1` (mixture of isomers) [Example 200, (rac-cis)-N-[5-[3-(4-methoxypyrrolidin-3-yl)oxy-5-methyl-isoxazol-4-yl]pyrazolo[1,5-a]pyridin-2-yl]cyclopropanecarboxamide] to `Cc1onc(O[C@@H]2CNC[C@@H]2F)c1-c1ccn2nc(NC(=O)C3CC3)cc2c1` (racemic) [Example 208, (rac-cis)-N-[5-[3-(4-fluoropyrrolidin-3-yl)oxy-5-methyl-isoxazol-4-yl]pyrazolo[1,5-a]pyridin-2-yl]cyclopropanecarboxamide], the IC50 falls from 29.4 nM to 11.5 nM (2.6-fold). The second is the more potent here.

`COC1(COc2noc(C)c2-c2ccn3nc(NC(=O)C4CC4)cc3c2)CCNC1` (racemic) [Example 205, (RS)—N-[5-[3-[(3-methoxypyrrolidin-3-yl)methoxy]-5-methyl-isoxazol-4-yl]pyrazolo[1,5-a]pyridin-2-yl]cyclopropanecarboxamide] and `Cc1onc(O[C@@H]2CCNC[C@@H]2F)c1-c1ccn2nc(NC(=O)C3CC3)cc2c1` (racemic) [Example 211, (rac-cis)-N-[5-[3-[(3-fluoro-4-piperidyl)oxy]-5-methyl-isoxazol-4-yl]pyrazolo[1,5-a]pyridin-2-yl]cyclopropanecarboxamide] are within 1.5-fold of each other in IC50: 23.5 nM for the first, 32.5 nM for the second.

Compared with `Cc1onc(O[C@H]2C[C@H]3C[C@@H]2CN3)c1-c1ccn2nc(NC(=O)C3CC3)cc2c1` (racemic) [Example 212, Exo-Rac-N-[5-[3-(2-azabicyclo[2.2.1]heptan-5-yloxy)-5-methyl-isoxazol-4-yl]pyrazolo[1,5-a]pyridin-2-yl]cyclopropanecarboxamide], `CO[C@@H]1CN(C)C[C@@H]1Oc1cnn(C)c1-c1ccn2nc(NC(=O)C3CC3)cc2c1` (racemic) [Example 409, (rac-cis)-N-[5-[4-(4-methoxy-1-methyl-pyrrolidin-3-yl)oxy-2-methyl-pyrazol-3-yl]pyrazolo[1,5-a]pyridin-2-yl]cyclopropanecarboxamide] is 3.7-fold higher in IC50: 46.4 nM for the first, 170 nM for the second.

First: Cc1cc(Nc2cc3cc(-c4c(CO[C@@H]5CN(C)C[C@H]5C)cnn4C)ccn3n2)nc(C)n1 (racemic) [Example 364, Rac-N-(2,6-dimethylpyrimidin-4-yl)-5-[4-[(1,4-dimethylpyrrolidin-3-yl)oxymethyl]-2-methyl-pyrazol-3-yl]pyrazolo[1,5-a]pyridin-2-amine]
Second: Cc1cnc(Nc2cc3cc(-c4c(COC5CN(C)CC5C)cnn4C)ccn3n2)cn1 (racemic) [Example 376, Rac-CIS-5-[4-[(1,4-dimethylpyrrolidin-3-yl)oxymethyl]-2-methyl-pyrazol-3-yl]-N-(5-methylpyrazin-2-yl)pyrazolo[1,5-a]pyridin-2-amine]
The IC50 of the first is 1.8-fold lower: 2.4 nM for the first, 4.3 nM for the second.

Work on `Cc1cc(Nc2cc3cc(-c4c(OC[C@@H]5CCO[C@@H]5C)cnn4C)ccn3n2)nc(C)n1` (relative stereo) [Example 295, (2*R, 3*S)—N-(2,6-dimethylpyrimidin-4-yl)-5-[2-methyl-4-[(2-methyltetrahydrofuran-3-yl)methoxy]pyrazol-3-yl]pyrazolo[1,5-a]pyridin-2-amine] yielded an IC50 of 24.5 nM.
